From patent publication US11708344B2, “Flavone derivatives for the treatment and prophylaxis of hepatitis B virus disease” (Hoffmann-La Roche Inc., priority 2018, dated 2023)
Like-named read-outs stand apart in the source and are kept apart here.

Experiments:
[1] = tested on: HBeAg (surrogate marker for cccDNA) in HepDES19 cells; test: Engineered HepDES19 primary screen assay (HBeAg ELISA); format: cell-based, HBV
Outline: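 HepDES19 cells were induced by Tet withdrawal for 8 days, then treated with half-log compound dilutions (1% DMSO final) for 5 days at 37 °C. HBeAg was measured by ELISA as the cccDNA surrogate, viability by CCK-8, and IC50 from a 4-parameter logistic fit.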

[2] = tested on: HBsAg in HBV-infected PHH; test: Cryopreserved primary human hepatocytes (PHH) HBV infection assay, extracellular HBsAg (CLIA); format: cell-based
Method: This assay is used to confirm the anti-HBV effect of the compounds in HBV PHH infection assay. Cryopreserved PHH (BioreclamationIVT, Lot YJM) was thawed at 37° C. and gently transferred into pre-warmed InVitroGRO HT medium (BioreclamationIVT, Cat. S03317). The mixture was centrifuged at 70 relative centrifugal force (RCF) for 3 minutes at RT, and the supernatant was discarded. Pre-warmed InVitroGRO CP medium (BioreclamationIVT, Cat #S03316) was added to the cell pellet to gently re-suspend cells. The cells were seeded at the density of 5.8×10^4 cells per well to collagen I coated 96-well plate (Gibco, Cat. A1142803) with the InVitroGRO CP medium. All plates were incubated at 37° C. with 5% CO2 and 85% humidity.
At 20 hours after plating, the medium was changed to PHH culture medium (Dulbecco's Modified Eagle Medium (DMEM)/F12 (1:1) (Gibco, Cat. 11320-033), 10% fetal bovine semm (Gibco Cat. 10099141), 100 U/mL penicillin, 100 μg/mL streptomycin (Gibco, Cat. 151401-122), […] (Invitrogen Cat. PHG0311L), 20 ng/mL dexamethasone (Sigma, Cat. D4902) and 250 ng/mL human recombinant insulin (Gibco, Cat. 12585-014)). And the cells were incubated at 37° C. with 5% CO2 and 85% humidity for 4 hours. The medium was then changed to pre-warmed PHH culture medium containing 4% polyethylene glycol (PEG) MW8000 (Sigma, Cat. P1458-50 ML) and 1% DMSO (Sigma, Cat. D2650). 5.8×10^6 genomic equivalents of HBV were added into the medium.
At 24 hours post-infection, the cells were gently washed with PBS and refreshed with PHH culture medium supplemented with 1% DMSO, and 0.25 mg/mL Matrix gel (Corning, Cat. 356237) at 200 μL per well. All plates were immediately placed in at 37° C. CO2 incubator.
24 hours later, serial dilutions of compounds made with DMSO were further diluted with the same culture medium (PHH culture medium supplemented with 1% DMSO and 0.25 mg/mL Matrix gel as described above) before they were added to the cells to reach desired final compound concentrations and 1% DMSO concentration. The medium containing the compounds were refreshed every three days.
At 9 days post-compound treatment, extracellular HBsAg level were measured with Chemiluminescence Immuno Assay (CLIA) kit (Autobio, HBsAg Quantitative CLIA). Extracellular HBV DNA was extracted by MagNA Pure 96 system (Roche) and then determined by quantitative PCR with the following primers and probe: […]
HBsAg IC50 and HBV DNA IC50 values were derived from the dose-response curve using 4 parameter logistic curve fit method. The compounds of formula (I) have HBsAg IC50<20 μM, particularly <1 μM; and HBV DNA IC50<50 μM.

[3] = Human microsome stability assay; format: in vitro ADME; settings: human liver microsomes, 1 μM test compound, 0.5 mg/mL microsomal protein, 37° C., pH 7.4, 0-30 minutes
Outline: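 Compound (1 μM) incubated at 37 °C with human liver microsomes (0.5 mg/mL protein) in 100 mM potassium phosphate, pH 7.4, after 10 min preincubation; started with NADPH regenerating system. Sampled at 0–30 min, quenched with cold ACN; remaining parent quantified by LC-MS/MS, with no-NADPH controls.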

[4] = Hepatitis B virus, HepDES19, 120 h, read-out: IC50 (HBeAg level, HepDES19 primary screen assay), HepDES19 cells, 5 days compound incubation, HBeAg ELISA
[5] = Hepatitis B virus, Hepatocyte, 216 h, read-out: HBsAg IC50, Cryopreserved PHH infected with HBV, 9 days post-compound treatment, extracellular HBsAg

Row | Compound | IC50 [1, 4] | IC50 [2, 5] | IC50 ([1]; read-out: IC50 (HBeAg level, HepDES19 primary screen assay), HepDES19 cells, 5 days compound incubation, HBeAg ELISA) | IC50 ([2]; read-out: HBsAg IC50, Cryopreserved PHH infected with HBV, 9 days post-compound treatment, extracellular HBsAg) | Clearance of Human microsome [3]
1 | O=c1cc(-c2ccc(N3CCOCC3)cc2OCCO[C@H]2C[C@H](C(=O)O)C2)oc2c(Cl)cccc12 [Example C067-B, trans-3-[2-[2-(8-chloro-4-oxo-chromen-2-yl)-5-morpholino-phenoxy]ethoxy]cyclobutanecarboxylic acid] | 8360 nM | 4740 nM |  |  | 
2 | O=C(COc1cc(C(F)(F)F)ccc1-c1cc(=O)c2cccc(Cl)c2o1)N1CCOCC1 [Example A092, 8-chloro-2-[2-(2-morpholino-2-oxo-ethoxy)-4-(trifluoromethyl)phenyl]chromen-4-one] | 1130 nM | 2800 nM |  |  | 
3 | Cc1cc(-c2cc(=O)c3cccc(Cl)c3o2)c(O[C@H]2C[C@H](C(=O)O)C2)cc1Br [Example B013-B, Trans-3-[5-bromo-2-(8-chloro-4-oxo-chromen-2-yl)-4-methyl-phenoxy]cyclobutanecarboxylic acid] | 2450 nM | 1020 nM |  |  | 
4 | Cc1cc(-c2cc(=O)c3cccc(Cl)c3o2)c(O[C@H]2C[C@@H](C(=O)O)C2)cc1Br [Example B013-A, Cis-3-[5-bromo-2-(8-chloro-4-oxo-chromen-2-yl)-4-methyl-phenoxy]cyclobutanecarboxylic acid] | 919 nM | 7300 nM |  |  | 
5 | COc1cc(OCCC(=O)O)c(-c2cc(=O)c3cccc(Cl)c3o2)cc1C [Example A012, 3-[2-(8-chloro-4-oxo-chromen-2-yl)-5-methoxy-4-methyl-phenoxy]propanoic acid] | 650 nM | 2110 nM |  |  | 
6 | O=C(O)CCOc1cc2c(cc1-c1cc(=O)c3cccc(Cl)c3o1)OCO2 [Example A011, 3-[[6-(8-chloro-4-oxo-chromen-2-yl)-1,3-benzodioxol-5-yl]oxy]propanoic acid] | 415 nM | 931 nM |  |  | 
7 | COc1cc(O[C@H]2C[C@H](C(=O)NS(C)(=O)=O)C2)c(-c2cc(=O)c3cccc(Cl)c3o2)cc1Br [Example B055-B, Trans-3-[4-bromo-2-(8-chloro-4-oxo-chromen-2-yl)-5-methoxy-phenoxy]-N-methylsulfonyl-cyclobutanecarboxamide] | 3880 nM | 4000 nM |  |  | 
8 | O=C(O)CCOc1cc(Br)cc(F)c1-c1cc(=O)c2cccc(Cl)c2o1 [Example A020, 3-[5-bromo-2-(8-chloro-4-oxo-chromen-2-yl)-3-fluoro-phenoxy]propanoic acid] | 780 nM | 7500 nM |  |  | 
9 | O=C(O)C1CC(OCCOc2cc(N3CCOC3=O)ccc2-c2cc(=O)c3cccc(Cl)c3o2)C1 (stereo not drawn) [Example C062, 3-[2-[2-(8-chloro-4-oxo-chromen-2-yl)-5-(2-oxooxazolidin-3-yl)phenoxy]ethoxy]cyclobutanecarboxylic acid] | 1510 nM | 6790 nM |  |  | 
10 | Cc1cc(-c2cc(=O)c3cccc(Cl)c3o2)c(OCC(=O)N2C[C@@H](O)[C@@H](O)C2)cc1Br [Example A090, 2-[4-bromo-5-methyl-2-[2-oxo-2-[rac-(3S,4R)-3,4-dihydroxypyrrolidin-1-yl]ethoxy]phenyl]-8-chloro-chromen-4-one] | 4790 nM | 9350 nM |  |  | 
11 | O=C(O)CCCOc1cc(Br)ccc1-c1cc(=O)c2cccc(Cl)c2o1 [Example A055, 4-[5-bromo-2-(8-chloro-4-oxo-chromen-2-yl)phenoxy]butanoic acid] | 95.5 nM | 2380 nM |  |  | 
12 | Cc1cc(-c2cc(=O)c3cccc(Cl)c3o2)c(OC2CC(C(=O)O)C2)cc1Cl (stereo in doubt) [Example B012-B, Trans-3-[5-chloro-2-(8-chloro-4-oxo-chromen-2-yl)-4-methyl-phenoxy]cyclobutanecarboxylic acid] |  |  | 2720 nM | 2560 nM | 
13 | Cc1cc(-c2cc(=O)c3cccc(Cl)c3o2)c(OCCO[C@H]2C[C@@H](C(=O)O)C2)cc1Br [Example C031-A, Cis-3-[2-[5-bromo-2-(8-chloro-4-oxo-chromen-2-yl)-4-methyl-phenoxy]ethoxy]cyclobutanecarboxylic acid] | 6190 nM | 1160 nM |  |  | 
14 | CN(C)S(=O)(=O)CCCOc1cc(Br)ccc1-c1cc(=O)c2cccc(Cl)c2o1 [Example B071, 3-[5-bromo-2-(8-chloro-4-oxo-chromen-2-yl)phenoxy]-N,N-dimethyl-propane-1-sulfonamide] | 988 nM | 4950 nM |  |  | 
15 | COc1cc(OCCO[C@H]2C[C@@H](C(=O)O)C2)c(-c2cc(=O)c3cccc(Cl)c3o2)cc1C [Example C041-A, Cis-3-[2-[2-(8-chloro-4-oxo-chromen-2-yl)-5-methoxy-4-methyl-phenoxy]ethoxy]cyclobutanecarboxylic acid] | 7840 nM | 5930 nM |  |  | 
16 | Cc1ccc(-c2cc(=O)c3cccc(Cl)c3o2)c(O[C@H]2C[C@H](C(=O)O)C2)c1 [Example B018-B, Trans-3-[2-(8-chloro-4-oxo-chromen-2-yl)-5-methyl-phenoxy]cyclobutanecarboxylic acid] | 548 nM | 4700 nM |  |  | 
17 | O=C(O)COCCCOc1cc(Br)ccc1-c1cc(=O)c2cccc(Cl)c2o1 [Example C010, 2-[3-[5-bromo-2-(8-chloro-4-oxo-chromen-2-yl)phenoxy]propoxy]acetic acid] | 696 nM | 9380 nM |  |  | 
18 | Cc1cc(-c2cc(=O)c3cccc(Cl)c3o2)c(OCCO[C@H]2C[C@@H](C(=O)O)C2)cc1Cl [Example C055-A, Cis-3-[2-[5-chloro-2-(8-chloro-4-oxo-chromen-2-yl)-4-methyl-phenoxy]ethoxy]cyclobutanecarboxylic acid] | 4030 nM | 9270 nM |  |  | 
19 | Cc1ccc(-c2cc(=O)c3cccc(Cl)c3o2)c(OCCC(=O)O)c1 [Example A013, 3-[2-(8-chloro-4-oxo-chromen-2-yl)-5-methyl-phenoxy]propanoic] | 656 nM | 1910 nM |  |  | 
20 | COc1cc(O[C@H]2C[C@H](C(=O)O)C2)c(-c2cc(=O)c3cccc(Cl)c3o2)cc1C [Example B017, 3-[2-(8-chloro-4-oxo-chromen-2-yl)-5-methoxy-4-methyl-phenoxy]cyclobutanecarboxylic acid] | 4850 nM | 4870 nM |  |  | 
21 | O=C(O)C1CC(Oc2cc(Br)ccc2-c2cc(=O)c3cccc(Cl)c3o2)C1 (stereo not drawn) [Example B001, 3-[5-bromo-2-(8-chloro-4-oxo-chromen-2-yl)phenoxy]cyclobutanecarboxylic acid] | 213 nM | 1030 nM |  |  | 
22 | COc1cc(-c2cc(=O)c3cccc(Cl)c3o2)c(OCCC(=O)O)cc1OCC(F)(F)F [Example A041, 3-[2-(8-chloro-4-oxo-chromen-2-yl)-4-methoxy-5-(2,2,2-trifluoroethoxy)phenoxy]propanoic acid] | 6060 nM |  |  |  | 6.15 mL/min/kg
23 | Cc1cc(-c2cc(=O)c3cccc(Cl)c3o2)c(OCCOCC(=O)O)cc1Br [Example C021, 2-[2-[5-bromo-2-(8-chloro-4-oxo-chromen-2-yl)-4-methyl-phenoxy]ethoxy]acetic acid] | 9250 nM |  |  |  | 7.66 mL/min/kg
24 | O=C(O)COCCOc1cc(OC(F)(F)F)ccc1-c1cc(=O)c2cccc(Cl)c2o1 [Example C023, 2-[2-[2-(8-chloro-4-oxo-chromen-2-yl)-5-(trifluoromethoxy)phenoxy]ethoxy]acetic acid] | 3990 nM |  |  |  | 6.15 mL/min/kg
